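Compound exposure: 48 hours, 5 concentrations, 96-well plates. Here, GI50 denotes the concentration required for 50% inhibition of growth. At the TGI there is no net growth.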
Assays:
Experiment in all cases: NCI anticancer screen, dose series, 48 h
NCI-H23 lung = system: NCI-H23 lung
U251 CNS = system: U251 CNS
M14 melanoma = system: M14 melanoma
DU-145 prostate = system: DU-145 prostate
SF-295 CNS = system: SF-295 CNS
786-0 renal = system: 786-0 renal
MCF7 breast = system: MCF7 breast
NCI-H226 lung = system: NCI-H226 lung
PC-3 prostate = system: PC-3 prostate
SW-620 colon = system: SW-620 colon

Row | SMILES | TGI (NCI-H23 lung) [µM] | TGI (U251 CNS) [µM] | TGI (M14 melanoma) [µM] | TGI (DU-145 prostate) [µM] | TGI (SF-295 CNS) [µM] | TGI (786-0 renal) [µM] | TGI (MCF7 breast) [µM] | TGI (NCI-H226 lung) [µM] | TGI (PC-3 prostate) [µM] | TGI (SW-620 colon) [µM] | GI50 (NCI-H23 lung) [µM] | GI50 (U251 CNS) [µM] | GI50 (M14 melanoma) [µM] | GI50 (DU-145 prostate) [µM] | GI50 (SF-295 CNS) [µM] | GI50 (MCF7 breast) [µM] | GI50 (NCI-H226 lung) [µM] | GI50 (PC-3 prostate) [µM] | GI50 (SW-620 colon) [µM]
1 | CC(C)(C)[Si](C)(C)OC[C@H](/C=C\CCCC(=O)O)NC1(c2ccccc2)c2ccccc2-c2ccccc21 | 63.2 | 30.6 | 38.8 | > 100 | > 100 | 30.3 | 34.5 | 26 | 40.3 | > 100 | – | – | – | – | – | – | – | – | –
2 | COc1cc(/C=N/NC2=NCCN2)ccc1O | > 100 | > 100 | > 100 | > 100 | > 100 | > 100 | > 100 | > 100 | > 100 | > 100 | – | – | – | – | – | – | – | – | –
3 | O=[N+]([O-])/C(C(Cl)=C(Cl)Cl)=C(/Nc1ccccc1)Sc1ccccc1 | 36.2 | 27.7 | 36.5 | 41.4 | 47.5 | 46.5 | 75.2 | 40.1 | 34.9 | 51.1 | – | – | – | – | – | – | – | – | –
4 | Cc1cc2ccc(N)nc2[nH]c1=O | > 100 | > 100 | > 100 | > 100 | > 100 | > 100 | > 100 | > 100 | > 100 | > 100 | – | – | – | – | – | – | – | – | –
5 | CCCCC[C@H]1CCCCCCCCCC(=O)OC2C(O[C@@H]3OC(C)[C@H](OC(=O)[C@@H](C)CC)C(O[C@@H]4OC(C)[C@H](O)C(O)[C@@H]4O)[C@@H]3OC(=O)[C@H](C)CC)[C@H](OC3C(O)[C@@H](O)C(C)O[C@H]3O1)OC(CO)[C@H]2O (some centres not stated) | 34 | 32.1 | 32.3 | 30 | 32.7 | 31.7 | 34.7 | – | 29.8 | 30.9 | – | – | – | – | – | – | – | – | –
6 | Nc1cc2c3c(cccc3c1)C(=O)N(c1ccc(OCCN3CCCC3)cc1)C2=O | 28.2 | 64.6 | 51.2 | > 92.8 | 27.4 | 31.5 | 31.5 | 33.2 | 46.5 | 97 | – | – | – | – | – | – | – | – | –
7 | CCCCCCCCCCCCO[P+](=O)OCCCCCCCCCCCC | > 100 | > 100 | > 100 | > 100 | > 100 | > 100 | > 100 | > 100 | > 100 | > 100 | – | – | – | – | – | – | – | – | –
8 | C(#Cc1ccccc1)SC1=C(c2ccccc2)S/C(=C(\SC#Cc2ccccc2)c2ccccc2)S1 | > 100 | > 100 | > 100 | > 100 | > 100 | > 100 | > 100 | > 100 | > 100 | > 100 | – | – | – | – | – | – | – | – | –
9 | O=c1[nH]c2ccc([N+](=O)[O-])cc2nc1/C=C(\O)c1ccccc1 | 73.3 | 30.3 | > 100 | > 100 | > 100 | 20.6 | > 100 | > 100 | > 100 | – | – | – | – | – | – | – | – | – | –
10 | NC(=O)Oc1ccccc1 | > 100 | > 100 | > 100 | > 100 | > 100 | – | > 100 | > 100 | > 100 | > 100 | – | – | – | – | – | – | – | – | –
11 | S=c1nc[nH]c2c1ncn2C1CCCO1 (configuration not stated) | > 100 | > 100 | > 100 | – | > 100 | > 100 | – | – | – | > 100 | – | – | – | – | – | – | – | – | –
12 | Cc1c(O)c(=O)ccn1CCc1ccc(O)cc1 | > 100 | > 100 | 53 | > 100 | > 100 | 27.8 | 58.2 | – | > 100 | > 100 | – | – | – | – | – | – | – | – | –
13 | COc1ccc(C2=NC(c3ccc(Cl)cc3)C(c3ccc(Cl)cc3)N2C(=O)N2CCNC(=O)C2)c(OC(C)C)c1 (configuration not stated) | 3.45 | 3.57 | 3.31 | 3.54 | 3.38 | – | 4.16 | 4.19 | 4.79 | 6.12 | 1.83 | 1.84 | 1.84 | 1.8 | 1.81 | 2.06 | 2.08 | 2.26 | 2.41
14 | CCOC(=O)C(C(=O)COC(C)(C)C)[C@@H]1C=C[C@H](OC(C)=O)C1 (some centres not stated) | > 100 | > 100 | > 100 | – | > 100 | > 100 | > 100 | > 100 | > 100 | > 100 | – | – | – | – | – | – | – | – | –
15 | Cc1ccc(S(=O)(=O)Nn2c(O)c(C#N)c(-c3ccc([N+](=O)[O-])cc3)c(C#N)c2=O)cc1 | – | > 100 | > 100 | – | > 100 | > 100 | > 100 | > 100 | > 100 | > 100 | – | – | – | – | – | – | – | – | –
